molecular target: T1, cloned human dopamine D3 receptors (Homo sapiens, UniProt P35462); assay: [N-Methyl-3H]Spiroperidol binding to cloned human dopamine D3 receptors; settings: read-out: D3 Ki
T1 construct: expressed in transfected cells; membrane homogenate
Procedure, shortened: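 Radioligand displacement with [N-methyl-3H]spiroperidol was run on membranes from a high-expressing CHO clone carrying human D3. Membranes were prepared in 10% DMSO and stored at −80° C.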

T1 sequence (P35462 whole entry): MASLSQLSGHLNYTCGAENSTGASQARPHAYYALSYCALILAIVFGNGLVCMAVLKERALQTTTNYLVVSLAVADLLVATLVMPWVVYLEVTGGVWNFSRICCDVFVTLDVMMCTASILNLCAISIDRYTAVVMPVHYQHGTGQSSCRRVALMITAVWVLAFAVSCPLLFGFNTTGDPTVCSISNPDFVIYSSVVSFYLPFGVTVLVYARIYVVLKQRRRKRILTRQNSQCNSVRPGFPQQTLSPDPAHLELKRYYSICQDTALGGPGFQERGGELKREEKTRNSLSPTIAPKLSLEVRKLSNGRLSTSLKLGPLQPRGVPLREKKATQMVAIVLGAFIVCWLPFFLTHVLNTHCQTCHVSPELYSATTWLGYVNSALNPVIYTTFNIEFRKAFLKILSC

Row | Compound | Ki
1 | O=C(C1CC1CN1CCC(c2noc3ccsc23)CC1)N1CCN(Cc2ccc(Cl)c(Cl)c2)CC1 (racemic) [compound 831390] | 0.861 nM
2 | O=C(NC1CCN(Cc2cccc3ccccc23)CC1)C1CC1CN1CCC(c2noc3ccsc23)CC1 (racemic) [compound 831822] | 1.38 nM
3 | O=C([C@@H]1C[C@H]1CN1CCN(c2csc3cc(C(F)(F)F)ccc23)CC1)N1CCCC(CN2CCCNCC2)C1 (mixture of isomers) [A002437358] | 8.86 nM
4 | COc1ccc(CN2CCC(NC(=O)C3CC3CN3CCC(c4noc5ccsc45)CC3)CC2)cc1 (racemic) [compound 831795] | 1.82 nM
5 | O=C(NCc1ccco1)C1CC1CN1CCC(c2noc3ccsc23)CC1 (racemic) [compound 827393] | 391 nM
6 | CC[C@H]1CC[C@H](NC(=O)C2(CCN3CCN(c4csc5cc(C(F)(F)F)ccc45)CC3)CC2)CC1 [compound 832517] | 173 nM
7 | CC(C)N1CCN(C(=O)[C@@H]2C[C@H]2CN2CCN(c3csc4cc(C(F)(F)F)ccc34)CC2)CC1 [compound 832833] | 18.2 nM
8 | COc1cccc2c(C3CCN(C[C@@H]4C[C@H]4C(=O)NCC45CC6CC(CC(C6)C4)C5)CC3)nn(C)c12 [compound 834057] | 89.4 nM
9 | CC1CCCCN1CCCNC(=O)[C@@H]1C[C@H]1CN1CCN(c2csc3cc(C(F)(F)F)ccc23)CC1 (mixture of isomers) [compound 832578] | 25.8 nM
10 | COc1ccc2c(c1)c(N1CCN(C[C@@H]3C[C@H]3C(=O)NCCCc3ccccc3)CC1)nn2-c1ccc(C(F)(F)F)cc1 [compound 831314] | 133 nM
11 | COc1c(F)ccc2c(C3CCN(CC4CC4C(=O)NC4CCC(C)CC4)CC3)noc12 (racemic) [compound 830134] | 0.602 nM
12 | COc1cccc(CCNC(=O)C2CC2CN2CCC(c3noc4ccsc34)CC2)c1 (racemic) [compound 831804] | 9.89 nM
13 | O=C(C1CC1CN1CCC(c2noc3ccsc23)CC1)N1CCN(Cc2ccccc2)CC1 (racemic) [compound 832153] | 30.7 nM
14 | O=C(N1CCCC1)C1(CCN2CCC(c3noc4ccsc34)CC2)CC1 [compound 832239] | 207 nM
15 | O=C(NC1CCN(Cc2cccc(Cl)c2)CC1)C1CC1CN1CCC(c2noc3ccsc23)CC1 (racemic) [compound 831995] | 4.73 nM
16 | CC(C)(C)c1ccc(CCNC(=O)[C@@H]2C[C@H]2CN2CCC(c3noc4ccsc34)CC2)cc1 [compound 833129] | 95.3 nM
17 | CC(C)(C)C(=O)O[C@H]1CC[C@H](NC(=O)[C@@H]2C[C@H]2CN2CCC(c3csc4c(C(F)(F)F)cccc34)CC2)CC1 [compound 833151] | 11.2 nM
18 | CC1(C)COCN1C(=O)[C@@H]1C[C@H]1CN1CCC(c2noc3ccsc23)CC1 [compound 829464] | 22.4 nM
19 | O=C(NCCCN1CCOCC1)C1(CCN2CCN(c3csc4cc(C(F)(F)F)ccc34)CC2)CC1 [compound 832518] | 98.2 nM
20 | O=C(N[C@H]1CC[C@H](O)CC1)[C@@H]1C[C@H]1CN1CCN(c2nn(-c3ccccc3)c3ccsc23)CC1 [compound 832816] | 2.57 nM
21 | COc1ccc2c(c1)c(N1CCN(C[C@@H]3C[C@H]3C(=O)NC3CCN(Cc4cccc(Cl)c4)CC3)CC1)nn2C [compound 833836] | 1.36 nM
22 | O=C([C@@H]1C[C@H]1CN1CCC(c2noc3ccsc23)CC1)N1CCN(C/C=C/c2ccccc2)CC1 [compound 829467] | 9.01 nM
23 | O=C(NCCC(c1ccccc1)c1ccccc1)C1CC1CN1CCC(c2noc3ccsc23)CC1 (racemic) [compound 832191] | 8.06 nM
24 | O=C([C@@H]1C[C@H]1CN1CCC(c2noc3ccsc23)CC1)N1CCN(Cc2ccc(Cl)c(Cl)c2)CC1 [compound 832532] | 14.4 nM
25 | O=C(NCCCCc1cccnc1)[C@@H]1C[C@H]1CN1CCC(c2noc3ccsc23)CC1 [compound 832530] | 16 nM
26 | O=C(NC1CCN(Cc2ccc(F)cc2)CC1)C1CC1CN1CCC(c2noc3ccsc23)CC1 (racemic) [compound 831993] | 2.51 nM

same assay, conditions: read-out: d3Ki

Row | Compound | Ki
27 | C[C@H]1CC[C@H](NC(=O)CCCN2CCN(c3csc4cc(C(F)(F)F)ccc34)CC2)CC1 [compound 826804] | 67.4 nM
